From US20260184750A1, “CONJUGATE COMPRISING PEPTIDE OF NOVEL SEQUENCE AND GLYCYRRHIZIN, AND PHARMACEUTICAL COMPOSITION FOR PREVENTING OR TREATING OBESITY COMPRISING SAME” (IUCF-HYU (INDUSTRY-UNIVERSITY COOPERATION FOUNDATION …, priority 2022, published 2026)
Like-named read-outs stand apart in the source and are kept apart here. No end group written: not given here.

Key:
[1] = test system: adipocytes (mature 3T3-L1); test: Confocal fluorescence imaging of peptide binding to adipocyte outer membrane; format: cell-based; settings: 1 μM FITC-labeled peptide, 30 minutes, 37° C.
Protocol: The binding of the candidate peptides to the adipocyte outer membrane was confirmed through fluorescence imaging. Specifically, differentiated 3T3-L1 preadipocytes were treated with 1 μM of the finally selected FITC-labeled candidate peptides in Table 2 dissolved in DMEM for 30 minutes at 37° C. After washing with PBS, cell nuclei were stained using 4′6,-diamidino-2-phenylindole (DAPI). Fluorescence images were taken using a confocal microscope (green fluorescence (FITC)=488 nm, blue fluorescence (DAPI)=405 nm).

[2] = test system: adipocytes (mature 3T3-L1); test: FACS targeting ability of FITC-labeled peptides in adipocytes; format: cell-based; settings: 37° C.; for targeting ability (FACS): adipocytes (mature 3T3-L1), 1 μM FITC-labeled peptide, 30 minutes
Protocol: To conduct cell experiments in adipocytes, preadipocytes were differentiated into adipocytes. Specifically, 3T3-L1 preadipocytes were first seeded in a well plate of a size suitable for the experimental purpose, and then cultured to 80% to 90% confluence. Thereafter, the cells were treated with an adipocyte differentiation induction reagent (insulin 10 μg/ml, dexamethasone 0.4 μg/ml, 3-isobutyl-1-methylxanthine 111 μg/ml) for three days. After washing the adipocyte differentiation induction reagent with phosphate-buffered saline (PBS), the cells were treated with Dulbecco's modified eagle medium (DMEM) containing insulin (10 μg/ml) every two days, and differentiation was induced for up to 14 days to generate adipocytes. Thereafter, on day 14 of the adipocyte differentiation induction, the cells were fixed with 4% paraformaldehyde and then treated with the Oil red O staining solution for two hours. In addition, the staining solution accumulated inside the cells was eluted with isopropanol, and a microplate reader was used to verify whether fatty acids were accumulated inside the adipocytes at a wavelength of 510 nm to finally confirm the differentiation.
The targeting effect of the above-described candidate peptides was quantitatively verified in actual adipocytes and preadipocytes. Specifically, differentiated 3T3-L1 preadipocytes were treated at 37° C. for 30 minutes with 1 μM of the final FITC-labeled candidate peptides dissolved in DMEM.
After washing with PBS, cells were detached from the well plate using a trypsin-ethlyenediaminetetraacetic acid (EDTA) (0.5%) solution and centrifuged at 1100 rpm for three minutes to obtain sedimented cells. […]
The finally selected candidate peptide (adipose tissue homing peptide: AHP) (SEQ ID NO: 14: KGRRAKD) was quantitatively compared with another adipose tissue targeting sequence (adipose targeting sequence: ATS) (SEQ ID NO: 22: KGGRAKD) in adipocytes. […]

[3] = Pharmacokinetics: blood residual concentration after intraperitoneal injection; format: in vivo, C57BL/6J; settings: 13.5 mg/kg intraperitoneal
Protocol: The pharmacokinetic indices were calculated by measuring the blood residual concentrations of GL derivatives. Specifically, GL and GL-PEG-AHP were injected intraperitoneally in an amount of 13.5 mg/kg into animals (C57BL/6J, 6 weeks old, 5 per cage). At each time point (0, 20, 30, 120, 240, and 480 minutes) following the intraperitoneal injection, the animals were sacrificed, and 300 μl of blood samples were obtained through the abdominal vein. The obtained blood samples were placed in EDTA tubes and centrifuged at 824×g for 30 minutes at 4° C. 50 μl of the supernatant was mixed with 100 μl of methanol, and the resulting mixture was vortexed for 10 minutes. Thereafter, centrifugation was performed again at 10,000×g for 10 minutes. 100 μl of the supernatant was mixed with 900 μl of the mobile phase, and the resulting mixture was filtered through a 0.45 μm syringe filter, and HPLC was performed (HPLC column: C8 column; mobile phase=methanol:acetonitrile:water:acetic acid=55:23.7:19.2:0.68; flow rate: 1 ml/min; injection volume: 20 μl) to measure the blood residual concentration of the drug over time. Detection was performed through UV at 245 nm.

ABCA1 = ABCA1 cell membrane expression in adipocytes treated with LXR inhibitor GSK2033; format: cell-based; settings: adipocytes treated with GL derivatives
Protocol: It was confirmed through fluorescence images whether the cell membrane expression level of ABCA1 by GL derivatives is reduced in adipocytes by GSK2033, an LXR inhibitor. […] Specifically, 4×10^4 adipocytes were seeded in a 24-well plate and treated with each group (control, GL, PEG, AHP, GL-PEG, and GL-PEG-AHP) for 24 hours on day 14 of adipocyte differentiation. The cells were fixed using 4% PFA. After washing with PBS, the cells were incubated with 10% goat serum and 0.02% Tween-20 for 30 minutes at room temperature. The cells were treated with the ABCA1 antibody (Host: rabbit, 1:300) in PBST at room temperature for two hours. After washing with PBST, the cells were treated with an FITC-labeled secondary antibody (goat-anti-rabbit, 1:500) at room temperature for one hour. After washing with PBS, the cells were treated with DAPI for one minute at room temperature, and then fluorescence images were obtained.

[4] = test system: obese adipocytes (FFA-treated mature 3T3-L1 cells); test: Anti-hypertrophic effect in obese adipocytes (Oil Red O); format: cell-based
Protocol: To induce obesity in adipocytes at the cell experiment level, cells were treated with saturated fatty acids, and the process of inducing obese adipocytes and performing the experiment at the cell experiment level are shown in FIG. 16. Specifically, a saturated fatty acid (free fatty-acid) (FFA, palmitic acid) was dissolved in a 2% w/v bovine serum albumin (BSA) and 0.5% ethanol DMEM solution to a concentration of 500 μM. After treating with FFA for three days, the cells were washed, subjected to an Oil Red O staining solution process, and then the amount of accumulated fatty acids was measured through the absorbance at 510 nm. The results are shown in FIG. 17, and it was confirmed even through qualitative observation that the size of single fat droplets was very different. […]
The anti-hypertrophy effect of GL derivatives in obesity-induced adipocytes according to the concentration was confirmed at the cell experiment level. […] The amount of fatty acids accumulated inside the cells was measured through the Oil Red O staining process on day 18 of differentiation. […]
It was confirmed whether the anti-hypertrophic effect according to the expected mechanism of GL derivatives differed depending on the fatty acid treatment method. […] On day 18 of differentiation, the amount of fatty acids accumulated inside the cells was measured through the Oil Red O staining process.

[5] = molecular target: T1, prohibitin (PHB) on the surface of adipocytes (mature 3T3-L1) (UniProt P67778 2-272, limits assumed); test: FACS of FITC-labeled peptide on mature 3T3-L1 adipocytes, 30 min at 37 °C
T1 construct: whole, on cells
T1 sequence (looked up): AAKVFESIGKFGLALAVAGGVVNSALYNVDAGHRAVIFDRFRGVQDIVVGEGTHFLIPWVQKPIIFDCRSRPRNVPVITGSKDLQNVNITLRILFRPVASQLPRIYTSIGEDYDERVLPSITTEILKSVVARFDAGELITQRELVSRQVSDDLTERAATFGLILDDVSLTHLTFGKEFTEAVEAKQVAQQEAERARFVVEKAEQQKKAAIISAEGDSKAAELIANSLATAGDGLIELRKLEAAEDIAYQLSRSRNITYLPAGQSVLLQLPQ

In the case of “7mer 001: adipose tissue homing peptide, SEQ ID NO: 14: KGRRAKD; conjugated form SEQ ID NO: 1: GKGRRAKDC”, the “adipocyte targeting ability (confocal fluorescence images)” value [1] is reported as “best adipocyte targeting ability”, the “adipocyte targeting effect compared with ATS (FACS)” value ([2]; 1 μM FITC-labeled AHP and ATS, 30 min) is reported as “not inferior in efficacy to ATS” and the “targeting ability (FACS)” value [2] is reported as “most effective targeting ability”.

For `CC1(C)[C@@H](O[C@H]2O[C@H](C(=O)O)[C@@H](O)[C@H](O)[C@H]2O[C@@H]2O[C@H](C(=O)O)[C@@H](O)[C@H](O)[C@H]2O)CC[C@]2(C)[C@H]3C(=O)C=C4[C@@H]5C[C@@](C)(C(=O)O)CC[C@]5(C)CC[C@@]4(C)[C@]3(C)CC[C@@H]12` [GL, glycyrrhizin], the AUC(0-t) ([3]; C57BL/6J, mouse, plasma, ip) was 114 µg·h/mL, the half-life ([3]; C57BL/6J, mouse, plasma, ip) was 3.3 h and the Cmax ([3]; C57BL/6J, mouse, plasma, ip, read-out: Cmax) was 43800 ng/mL. The Tmax ([3]; C57BL/6J, mouse, plasma, ip, read-out: Tmax (converted)) was 0.333 h.

With `Cc1cc(C)c(S(=O)(=O)N(Cc2ccc(-c3cccc(S(C)(=O)=O)c3)cc2)Cc2ccc(C(F)(F)F)o2)c(C)c1` [GSK2033] the “expression of ABCA1 in GL derivative groups by GSK2033 treatment” value (ABCA1) was “suppressed”.

In the case of “GL-PEG-AHP: adipose tissue-targeting glycyrrhizin conjugate: GL amide-bonded to thiol-PEG-amine, disulfide-bonded to AHP (SEQ ID NO: 1: GKGRRAKDC) (also: glycyrrhizin-PEG conjugate, Cys9 disulfide-linked to thiol-PEG-GL)”, the Cmax [3] is reported as 75200 ng/mL, the T1/2 [3] is reported as 3.45 h and the Tmax [3] is reported as 0.333 h. The “difference in drug efficacy between pretreatment and co-treatment” value ([4]; anti-hypertrophic effect, Oil Red O, day 18 of differentiation) was “greatest efficacy difference” and the anti-hypertrophic effect ([4]; drug pretreatment, 25, 50, 100, 200, 400 μM, ranking between groups) was “most effective anti-hypertrophic effect”.

With “GRRAK: 5mer candidate peptide, SEQ ID NO: 6” the “targeting ability (FACS)” value [2] was “did not have a significant targeting ability”.

B1: 5mer candidate peptide GRRAK, FITC-labeled (peptide)
peptide: GRRAK
modifications: also: FITC-labeled, position not given here
notes: Described as a 'working region'; also called working region GRRAK
B1: no binding (tested: 1 µM) [5].
